Results on three molecules are retold here after ChEMBL document CHEMBL3046111, “Synthesis and insecticidal activity of 1,2,4-oxadiazole and 1,2,4-thiadiazole derivatives” (2011).

Assay [1] concerns Nilaparvata lugens. Briefly: Insecticidal activity against imidacloprid-resistant Nilaparvata lugens (brown plant hopper) fourth-instar larvae reared on compound pre-treated rice seedlings assessed as insect mortality at 1 ppm measured after 7 days. The class given is functional.
In assay [2] the test system is Nilaparvata lugens. Briefly: Insecticidal activity against imidacloprid-resistant Nilaparvata lugens (brown planthopper) fourth-instar larvae reared on compound pre-treated rice seedlings assessed as insect mortality at 10 ppm measured after 7 days. It is filed as functional.
The subject of assay [3] is Nilaparvata lugens. The assay can be described thus: Insecticidal activity against imidacloprid-resistant Nilaparvata lugens (brown planthopper) fourth-instar larvae reared on compound pre-treated rice seedlings assessed as insect mortality at 0.1 ppm measured after 7 days. It is filed as functional.
The subject of assay [4] is Nilaparvata lugens. Briefly: Insecticidal activity against imidacloprid-sensitive Nilaparvata lugens (brown planthopper) fourth-instar larvae reared on compound pre-treated rice seedlings assessed as insect mortality at 0.1 ppm measured after 7 days. It is filed as functional.
For assay [5], the system named is Nilaparvata lugens. Briefly: Insecticidal activity against imidacloprid-sensitive Nilaparvata lugens (brown planthopper) fourth-instar larvae reared on compound pre-treated rice seedlings assessed as insect mortality at 1 ppm measured after 7 days. It is filed as functional.
For assay [6], the system named is Nephotettix cincticeps. Briefly: Insecticidal activity against Nephotettix cincticeps (green rice leafhopper) fourth instar larvae reared on compound pre-treated rice seedlings assessed as insect mortality at 10 ppm measured after 7 days. The class given is functional.
Assay [7] deals with Nilaparvata lugens. The assay can be described thus: Insecticidal activity against imidacloprid-sensitive Nilaparvata lugens (brown planthopper) fourth-instar larvae reared on compound pre-treated rice seedlings assessed as insect mortality at 200 ppm measured after 7 days. The class given is functional.
The test system of assay [8] is Nilaparvata lugens. The assay can be described thus: Insecticidal activity against imidacloprid-resistant Nilaparvata lugens (brown planthopper) fourth-instar larvae reared on compound pre-treated rice seedlings assessed as insect mortality at 100 ppm measured after 7 days. It is filed as functional.
For assay [9], the system named is Nilaparvata lugens. Briefly: Insecticidal activity against imidacloprid-sensitive Nilaparvata lugens (brown planthopper) fourth-instar larvae reared on compound pre-treated rice seedlings assessed as insect mortality at 100 ppm measured after 7 days. The class given is functional.
The test system of another assay is Aphis craccivora. Briefly: Insecticidal activity against Aphis craccivora (cowpea aphid) apterous adults reared on broad bean seedlings followed by compound spraying at 200 ppm assessed as insect mortality measured after 4 days. The class given is functional. As to conditions: 96 h.
In assay [10] the test system is Nilaparvata lugens. The assay can be described thus: Insecticidal activity against imidacloprid-sensitive Nilaparvata lugens (brown planthopper) fourth-instar larvae reared on compound pre-treated rice seedlings assessed as insect mortality at 10 ppm measured after 7 days. The class given is functional.
Assay [11] has as its target T1, Nicotinic acetylcholine receptor alpha 5 subunit (Musca domestica) (UniProt A9XFY4).
T1 sequence (whole entry): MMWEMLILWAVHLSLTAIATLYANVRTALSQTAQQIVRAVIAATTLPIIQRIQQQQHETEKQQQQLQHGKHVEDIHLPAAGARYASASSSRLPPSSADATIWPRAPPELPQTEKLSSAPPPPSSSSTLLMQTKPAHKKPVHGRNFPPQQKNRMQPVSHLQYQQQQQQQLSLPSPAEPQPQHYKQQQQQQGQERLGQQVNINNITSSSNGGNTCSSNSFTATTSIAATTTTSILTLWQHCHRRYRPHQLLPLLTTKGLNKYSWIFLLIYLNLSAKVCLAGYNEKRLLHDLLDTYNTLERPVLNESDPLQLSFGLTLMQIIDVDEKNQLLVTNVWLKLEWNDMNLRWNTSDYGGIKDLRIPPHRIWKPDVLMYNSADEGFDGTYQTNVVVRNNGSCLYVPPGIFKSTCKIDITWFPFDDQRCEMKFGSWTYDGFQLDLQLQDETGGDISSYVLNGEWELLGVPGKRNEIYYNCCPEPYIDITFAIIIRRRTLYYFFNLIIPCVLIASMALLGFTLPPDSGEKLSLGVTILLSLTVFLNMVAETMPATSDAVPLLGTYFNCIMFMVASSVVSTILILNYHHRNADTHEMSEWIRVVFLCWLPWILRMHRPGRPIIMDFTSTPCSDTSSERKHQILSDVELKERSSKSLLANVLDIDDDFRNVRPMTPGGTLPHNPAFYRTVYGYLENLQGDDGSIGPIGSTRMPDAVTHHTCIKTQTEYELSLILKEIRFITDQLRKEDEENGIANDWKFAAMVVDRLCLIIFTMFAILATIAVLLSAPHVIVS
Briefly: Inhibition of [3H]EPI from nicotinic acetylcholine receptor in Musca domestica (house fly) nerve-cord membranes at […] incubated at 21 degC for 60 min.

The target of assay [12] is T2, Muscarinic acetylcholine receptor DM1 (Drosophila melanogaster) (UniProt P16395).
T2 sequence (whole entry): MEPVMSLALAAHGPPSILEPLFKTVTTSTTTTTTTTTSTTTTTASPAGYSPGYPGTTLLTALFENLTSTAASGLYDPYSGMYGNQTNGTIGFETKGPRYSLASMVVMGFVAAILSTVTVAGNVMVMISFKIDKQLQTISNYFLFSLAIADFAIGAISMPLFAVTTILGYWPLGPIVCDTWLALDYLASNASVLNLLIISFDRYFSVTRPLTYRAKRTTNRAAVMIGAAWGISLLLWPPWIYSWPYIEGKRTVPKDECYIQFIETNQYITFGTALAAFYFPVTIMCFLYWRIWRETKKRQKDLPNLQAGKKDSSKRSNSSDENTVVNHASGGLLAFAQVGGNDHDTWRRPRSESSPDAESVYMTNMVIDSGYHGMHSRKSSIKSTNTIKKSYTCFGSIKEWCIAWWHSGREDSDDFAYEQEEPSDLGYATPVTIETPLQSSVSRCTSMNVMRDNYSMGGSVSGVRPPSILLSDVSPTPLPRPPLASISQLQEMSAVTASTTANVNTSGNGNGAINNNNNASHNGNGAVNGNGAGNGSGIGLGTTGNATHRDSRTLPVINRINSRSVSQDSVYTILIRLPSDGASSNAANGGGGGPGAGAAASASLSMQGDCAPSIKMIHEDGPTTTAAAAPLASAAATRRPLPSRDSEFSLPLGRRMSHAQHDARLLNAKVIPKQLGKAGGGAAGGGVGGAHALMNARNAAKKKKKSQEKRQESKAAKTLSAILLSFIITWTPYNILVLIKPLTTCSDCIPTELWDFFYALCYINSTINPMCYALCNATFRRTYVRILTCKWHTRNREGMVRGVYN
The assay can be described thus: Inhibition of [3H]NMS from mAChR in Musca domestica (house fly) nerve-cord membranes at […] incubated at 21 degC for 60 min.

Assay [13] deals with Nephotettix cincticeps. Briefly: Insecticidal activity against Nephotettix cincticeps (green rice leafhopper) fourth instar larvae reared on compound pre-treated rice seedlings assessed as insect mortality at 100 ppm measured after 7 days. It is filed as functional.

The term mortality denotes the share of the test organisms that died. By inhibition is commonly meant the relative decrease from the control value, in per cent. A lower inhibition goes with a response near the control.

The structures appear in SMILES notation.

Take `O=[N+]([O-])/N=C1\NCCN1Cc1ccc(Cl)nc1` [IMIDACLOPRID]: the figures for the mortality at 1 ppm in the assay with Nilaparvata lugens [1] and in the assay on Nilaparvata lugens [5] were 80% and 100%, respectively. The mortality at 10 ppm in the assay on Nilaparvata lugens [2] was found to be 100%. The mortality at 0.1 ppm with Nilaparvata lugens [3] was found to be 50%; with Nilaparvata lugens [4] it was 90%.
Consider `Cc1nsc(C2=CCCN(C)C2)n1`, for which the mortality at 10 ppm in the assay on Nephotettix cincticeps [6] was determined as 0%; in the assay with Nilaparvata lugens [2], 90%; with Nilaparvata lugens [10], 80%. In addition, the results for the mortality at 1 ppm with Nilaparvata lugens [1] and with Nilaparvata lugens [5] were 50% and 30%, respectively. The mortality at 200 ppm was 100% in the assay on Nilaparvata lugens [7] and 40% in the assay on Aphis craccivora. The mortality at 100 ppm in the assay with Nilaparvata lugens [8] is 100%; with Nilaparvata lugens [9], 100%; with Nephotettix cincticeps [13] it was 30%. Further, the inhibition in assay [11] is 6%; in assay [12], 62%.
On to `Cc1nsc(-c2cccnc2)n1`, for which the mortality at 10 ppm in the assay with Nephotettix cincticeps [6] came out at 30%; in the assay on Nilaparvata lugens [2] it was 90%; with Nilaparvata lugens [10], 80%. For the same molecule, the mortality at 1 ppm with Nilaparvata lugens [1] turned out to be 50%; in the assay with Nilaparvata lugens [5], 60%. Besides, the mortality at 200 ppm with Nilaparvata lugens [7] and in the assay with Aphis craccivora was 100% in each case. In addition, the mortality at 100 ppm with Nilaparvata lugens [8] was 100%; with Nilaparvata lugens [9], 100%; in the assay on Nephotettix cincticeps [13], 80%. Further, the values for the inhibition in [11] and in assay [12] were 4% and 12%, respectively.
